Measured values as given in ChEMBL document CHEMBL5390312, “Discovery of Tumor-Targeted 6-Methyl Substituted Pemetrexed and Related Antifolates with Selective Loss of RFC Transport” (ACS Med Chem Lett, 2023).
Activity calls are given as the source filed them. The rule behind the calls is not given here.

What was measured:
Type in all cases: functional, cell-based
[1] = Antiproliferative activity against chinese hamster R2 cells assessed as inhibition of cell growth incubated for 96 h by CellTiter-Blue cell viability assay; conditions: Cricetulus griseus, R2, 96 h
KB [2] = assay: Antiproliferative activity against human KB cells assessed as inhibition of cell growth upto 1000 nM incubated for 96 hrs in the presence of adenosine by CellTiter-Blue cell viability assay
KB [3] = assay: Antiproliferative activity against human KB cells assessed as inhibition of cell growth upto 1000 nM incubated for 96 hrs in the presence of AICA by CellTiter-Blue cell viability assay
KB [4] = assay: Antiproliferative activity against human KB cells assessed as inhibition of cell growth upto 1000 nM incubated for 96 hrs in the presence of thymidylate by CellTiter-Blue cell viability assay
KB [5] = assay: Antiproliferative activity against human KB cells assessed as inhibition of cell growth upto 1000 nM incubated for 96 hrs in the presence of thymidine by CellTiter-Blue cell viability assay
KB [6] = assay: Antiproliferative activity against human KB cells assessed as inhibition of cell growth upto 1000 nM incubated for 96 hrs in the presence of glycine by CellTiter-Blue cell viability assay

SMILES | IC50 [1] | Activity (KB [2]) | Activity (KB [3]) | Activity (KB [4]) | Activity (KB [5]) | Activity (KB [6])
Cc1[nH]c2nc(N)[nH]c(=O)c2c1CCc1ccc(C(=O)N[C@@H](CCC(=O)O)C(=O)O)c(F)c1 | > 1000 nM | inactive | inactive |  |  | 
Nc1nc2[nH]cc(CCc3ccc(C(=O)N[C@@H](CCC(=O)O)C(=O)O)c(F)c3)c2c(=O)[nH]1 | > 1000 nM | inactive | inactive | Active | inactive | 
Cc1[nH]c2nc(N)[nH]c(=O)c2c1CCCc1ccc(C(=O)N[C@@H](CCC(=O)O)C(=O)O)cc1 | > 1000 nM | inactive | inactive |  |  | 
Nc1nc2[nH]cc(CCc3ccc(C(=O)N[C@@H](CCC(=O)O)C(=O)O)s3)c2c(=O)[nH]1 | > 1000 nM |  |  |  |  | 
Nc1nc2[nH]cc(CCCc3ccc(C(=O)N[C@@H](CCC(=O)O)C(=O)O)cc3)c2c(=O)[nH]1 | > 1000 nM | inactive | inactive | Active | inactive | inactive
Cc1[nH]c2nc(N)[nH]c(=O)c2c1CCc1ccc(C(=O)N[C@@H](CCC(=O)O)C(=O)O)s1 | > 1000 nM | inactive | inactive |  |  | 
Nc1nc2[nH]cc(CCc3ccc(C(=O)N[C@@H](CCC(=O)O)C(=O)O)cc3)c2c(=O)[nH]1 [PEMETREXED] | > 1000 nM | inactive | inactive | Active | inactive | 
Cc1[nH]c2nc(N)[nH]c(=O)c2c1CCc1ccc(C(=O)N[C@@H](CCC(=O)O)C(=O)O)cc1 | > 1000 nM | inactive | inactive |  |  | 
